From patent publication US7301033B2, “PPAR-activating compound” (Kowa Co., Ltd., priority 2005, dated 2007)

How the values were obtained:
Format in all cases: cell-based
human PPARγ2 = target: T1, human PPARγ2 (Homo sapiens, UniProt P37231); experiment: Gal4-human PPARγ2 chimera luciferase transfection assay in COS cells; details: compound added at 1 μM, luciferase activity with rosiglitazone 1 μM given as 10.0, 16 hours
T1 construct: with 182nd to 505th amino acids of human PPARγ2; expressed in transfected cells; host or cells: COS cells (African green monkey kidney)
T1 sequence (P37231 182-505): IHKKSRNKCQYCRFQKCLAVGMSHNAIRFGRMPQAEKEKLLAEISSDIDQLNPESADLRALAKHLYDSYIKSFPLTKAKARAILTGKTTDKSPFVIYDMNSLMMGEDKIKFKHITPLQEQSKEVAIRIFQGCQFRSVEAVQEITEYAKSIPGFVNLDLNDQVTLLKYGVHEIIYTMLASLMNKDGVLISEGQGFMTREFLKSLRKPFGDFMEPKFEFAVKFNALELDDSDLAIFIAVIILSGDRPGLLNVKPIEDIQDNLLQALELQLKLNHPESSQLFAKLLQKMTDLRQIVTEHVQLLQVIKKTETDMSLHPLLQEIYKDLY
Experimental: (§1) The PPAR receptor-activating effect of the compound of the present invention represented by the formula (1) was measured by a method described below (Proc. Natl. Acad. Sci., 92, pp 7297-7301, 1995; Journal of Lipid Research, 40, pp 2099-2110, 1999; and Proc. Natl. Acad. Sci, 98, pp 5306-5311, 2001).
(§2) All the transfection assays were conducted using African green monkey kidney-derived cell line COS cells. The COS cells were cultured at 5% CO2 concentration using a DMEM medium containing 10% fetal bovine serum, glutamic acid, and an antibiotic as a culture solution.
(§3) Gal4-human PPARs chimeric constructs which were fused the DNA-binding region of yeast transcription factor Gal4 with the ligand-binding region of human PPARs were used as an expression vector. A chimera where 1st to 147th amino acids of the Gal4 transcription factor were fused with 166th to 467th amino acids of human PPARα, with 182nd to 505th amino acids of human PPARγ2, or with 137th to 441st amino acids of human PPARδ was used as the chimera for each isoform. A reporter vector used was firefly luciferase whose promoter region contains five Gal4 recognition sequences. The plasmids were transfected into the cells by a method using Lipofectamine. In addition, a β-galactosidase expression vector was used as an internal standard.
(§4) After the transfection into the cells, the medium was substituted with a DMEM medium (containing 0.2% serum) supplemented with the compound, in which the cells were then cultured for additional 16 hours. Thereafter, luciferase activity and β-galactosidase activity in the cell lysate were measured.
(§5) In the present experiment, dimethyl sulfoxide (DMSO) was used in the dissolution and dilution of the compound. When the cells were treated, the DMSO concentration in the DMEM medium (containing 0.2% serum) was adjusted to 0.1%.

human PPARδ = target: T2, human PPARδ (Homo sapiens, UniProt Q03181); experiment: Gal4-human PPARδ chimera luciferase transfection assay in COS cells; details: compound added at 1 μM, luciferase activity with GW501516 1 μM given as 10.0, 16 hours
T2 construct: with 137th to 441st amino acids of human PPARδ; expressed in transfected cells; host or cells: COS cells (African green monkey kidney)
T2 sequence (Q03181 137-441): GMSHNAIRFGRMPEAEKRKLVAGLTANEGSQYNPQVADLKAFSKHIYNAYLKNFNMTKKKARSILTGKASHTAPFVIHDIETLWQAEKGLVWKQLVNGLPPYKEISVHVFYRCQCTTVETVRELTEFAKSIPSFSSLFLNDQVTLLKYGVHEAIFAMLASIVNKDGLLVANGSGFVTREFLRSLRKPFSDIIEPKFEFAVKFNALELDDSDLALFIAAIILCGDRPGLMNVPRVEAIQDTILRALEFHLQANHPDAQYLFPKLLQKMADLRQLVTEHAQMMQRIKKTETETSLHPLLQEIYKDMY
Experimental: as §1, §2, §3, §4, §5

human PPARα = target: T3, human PPARα (Homo sapiens, UniProt Q07869); experiment: Gal4-human PPARα chimera luciferase transfection assay in COS cells; details: compound added at 1 μM, luciferase activity with WY14643 10 μM given as 10.0, 16 hours
T3 construct: 166th to 467th amino acids of human PPARα; expressed in transfected cells; host or cells: COS cells (African green monkey kidney)
T3 sequence (Q07869 166-467): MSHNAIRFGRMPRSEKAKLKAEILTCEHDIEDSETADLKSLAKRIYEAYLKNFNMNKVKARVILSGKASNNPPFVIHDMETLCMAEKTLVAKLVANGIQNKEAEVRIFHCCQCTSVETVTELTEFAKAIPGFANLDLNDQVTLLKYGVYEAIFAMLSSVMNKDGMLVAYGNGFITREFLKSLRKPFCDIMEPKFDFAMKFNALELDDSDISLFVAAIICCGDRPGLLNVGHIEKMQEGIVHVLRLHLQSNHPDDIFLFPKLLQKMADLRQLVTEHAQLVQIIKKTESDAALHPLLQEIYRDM
Experimental: as §1, §2, §3, §4, §5

SMILES	hPPAR; Relative activity γ (human PPARγ2)	hPPAR; Relative activity δ (human PPARδ)	hPPAR; Relative activity α (human PPARα)
CCCCCCCCN(CCCCCS(=O)(=O)c1ccccc1C(=O)O)c1nc2ccccc2o1 [Example 122, 2-[5-[N-(Benzoxazol-2-yl)-N-n-octyl]aminopentylsulfonyl]benzoic acid]	2.3	0.2	12.2
CCCCCN(CCCCOc1cccc(C(=O)O)c1)c1nc2ccccc2o1 [Example 47, 3-[4-[N-(Benzoxazol-2-yl)-N-n-pentyl]aminobutoxy]benzoic acid]	1.2	0.3	10.4
O=C(O)c1ccccc1SCCCCCN(CCCOc1ccccc1)c1nc2ccccc2o1 [Example 105, 2-[5-[N-(Benzoxazol-2-yl)-N-3-phenoxypropyl]aminopentylthio]benzoic acid]	2.5	4.2	25.3
CCN(CCCCCSc1ccccc1C(=O)O)c1nc2ccccc2o1 [Example 99, 2-[5-[N-(Benzoxazol-2-yl)-N-ethyl]aminopentylthio]benzoic acid]	2.2	0.3	16.8
O=C(O)c1ccccc1OCCCCN(CCCOc1ccccc1)c1nc2ccccc2o1 [Example 53, 2-[4-[N-(Benzoxazol-2-yl)-N-3-phenoxypropyl]aminobutoxy]benzoic acid]	3.5	0.1	16.0
O=C(O)c1cccc(OCCCCN(CCCOc2ccccc2)c2nc3ccccc3o2)c1 [Example 48, 3-[4-[N-(Benzoxazol-2-yl)-N-3-phenoxypropyl]aminobutoxy]benzoic acid]	2.1	0.2	16.0
CCCCCCCCN(CCCOc1ccccc1C(=O)O)c1nc2ccccc2o1 [Example 27, 2-[3-[N-(Benzoxazol-2-yl)-N-n-octyl]aminopropoxy]benzoic acid]	1.9	0.1	13.7
O=C(O)c1ccccc1SCCCCCN(Cc1ccc(Cl)cc1)c1nc2ccccc2o1 [Example 98, 2-[5-[N-(Benzoxazol-2-yl)-N-4-chlorobenzyl]aminopentylthio]benzoic acid]	3.3	0.7	14.7
O=C(O)c1cccc(OCCCN(CCOc2ccc(Cl)cc2)c2nc3ccccc3o2)c1 [Example 6, 3-[3-[N-(Benzoxazol-2-yl)-N-2-(4-chlorophenoxy)ethyl]aminopropoxy]benzoic acid]	1.2	0.3	17.3
O=C(O)c1ccccc1OCCCCN(CCOc1ccccc1)c1nc2ccccc2o1 [Example 52, 2-[4-[N-(Benzoxazol-2-yl)-N-2-phenoxyethyl]aminobutoxy]benzoic acid]	2.1	0.1	13.8

Further lines, results first:

hPPAR; Relative activity γ (human PPARγ2)	hPPAR; Relative activity δ (human PPARδ)	hPPAR; Relative activity α (human PPARα)	SMILES
1.6	0.2	17.8	O=C(O)c1ccccc1SCCN(CCCOc1ccccc1)c1nc2ccccc2o1 [Example 80, 2-[2-[N-(Benzoxazol-2-yl)-N-3-phenoxypropyl]aminoethylthio]benzoic acid]
1.1	0.2	13.3	O=C(O)c1ccccc1SCCN(CCCc1ccccc1)c1nc2ccccc2o1 [Example 79, 2-[2-[N-(Benzoxazol-2-yl)-N-3-phenylpropyl]aminoethylthio]benzoic acid]
0.8	0.2	12.1	CN(CCCCSc1ccccc1C(=O)O)c1nc2ccccc2s1 [Example 109, 2-[4-[N-(Benzothiazol-2-yl)-N-methyl]aminobutylthio]benzoic acid]
4.1	0.4	12.3	CCCCCCN(CCCCSc1ccccc1C(=O)O)c1nc2ccccc2o1 [Example 93, 2-[4-[N-(Benzoxazol-2-yl)-N-n-hexyl]aminobutylthio]benzoic acid]
2.0	0.2	11.0	CCCN(CCCCSc1ccccc1C(=O)O)c1nc2ccccc2s1 [Example 110, 2-[4-[N-(Benzothiazol-2-yl)-N-n-propyl]aminobutylthio]benzoic acid]
1.7	0.6	13.5	CCCCCN(CCCCCSc1ccccc1C(=O)O)c1nc2ccccc2o1 [Example 72, 2-[5-[N-(Benzoxazol-2-yl)-N-n-pentyl]aminopentylthio]benzoic acid]
2.4	0.0	13.1	O=C(O)c1ccccc1SCCCCCCN(Cc1ccc(Cl)cc1)c1nc2ccccc2o1 [Example 106, 2-[6-[N-(Benzoxazol-2-yl)-N-4-chlorobenzyl]aminohexylthio]benzoic acid]
6.2	0.1	15.2	CCCCCCCCN(CCOc1ccccc1C(=O)O)c1nc2ccccc2o1 [Example 13, 2-[2-[N-(Benzoxazol-2-yl)-N-n-octyl]aminoethoxy]benzoic acid]
